Data published in paper PMC11520566, “Discovery of pyrazole-based analogs as CDK2 inhibitors with apoptotic-inducing activity: design, synthesis and molecular dynamics study” (RSC Advances, 2024).
Where two headings read alike, the source gives them in different places.

Columns and labels:
Assay type in all cases: cell-based, human
HL-60(TB) = assay: NCI 60 five dose assay, Leukemia
NCI-H226 = assay: NCI 60 five dose assay, Non-small cell lung cancer
SF-295 = assay: NCI 60 five dose assay, CNS cancer
MALME-3M = assay: NCI 60 five dose assay, Melanoma; conditions: for Percent Growth: MALME-3M
UACC-257 = assay: NCI 60 five dose assay, Melanoma
OVCAR-5 = assay: NCI 60 five dose assay, Ovarian cancer
NCI/ADR-RES = assay: NCI 60 five dose assay, Ovarian cancer
786-0 = assay: NCI 60 five dose assay, Renal cancer
UO-31 = assay: NCI 60 five dose assay, Renal cancer
HCT-116 = assay: NCI 60 single dose screen, Colon cancer; conditions: single dose 10 μM
Protocol: (§1) The newly synthesized pyrazoles 2a–g, 7a–d, 8a and b, 9, and 10 were submitted to the National Cancer Institute (NCI) Developmental Therapeutics Program (http://www.dtp.nci.nih.gov) for assessment of their potential antiproliferative activity against a panel of NCI 60 cancer cell lines. All compounds were approved for screening against the approved 60 cancer cell lines at a single dose of 10 μM. The human cancer cell lines were derived from 9 variant cancer types including leukemia, melanoma, lung, colon, CNS, ovarian, renal, prostate and breast cancers. The results are presented as percentage of growth inhibition (GI%) of the screened compounds against the full panel of cell lines.
(§2) Under sterile conditions, the cell lines were grown in RPMI 1640 media (Gibco, NY, USA) supplemented with 10% fetal bovine serum (Biocell, CA, USA), and […] cell/mL was used to test the growth inhibition activity of the synthesized compounds. The compounds with concentrations ranging from 0.01 to 100 μM were prepared in phosphate buffer saline. Each compound was initially solubilized in dimethyl sulfoxide (DMSO); however, each final dilution contained less than 1% DMSO. Solutions of different concentrations (0.2 mL) were pipetted into the separate well of a microtiter tray in duplicate. Cell culture (1.8 mL) containing a cell population of […] cells per mL was pipetted into each well. Controls, containing only phosphate buffer saline and DMSO at identical dilutions, were also prepared in the same manner. These cultures were incubated in a humidified incubator at 37 °C. The incubator was supplied with 5% CO2 atmosphere. After 48 h, the cells in each well were diluted 10 times with saline and counted using a Coulter counter. The counts were corrected for the dilution.[34]

HT29 = assay: NCI 60 single dose screen, Colon cancer; conditions: single dose 10 μM
Protocol: as §1, §2

KM12 = assay: NCI 60 single dose screen, Colon cancer; conditions: single dose 10 μM
Protocol: as §1, §2

NCI 60 cell panel = assay: NCI 60 five dose assay, subpanel and full panel means
[1] = Homo sapiens, read-out: LC50 (the source's name)

CC(=NNc1ccc(S(N)(=O)=O)cc1)c1ccc(NN=C2C(=O)NN=C2Nc2ccccc2)cc1 [Compound 4, 4-(2-(1-(4-(2-(5-oxo-3-(phenylamino)-1,5-dihydro-4H-pyrazol-4-ylidene)hydrazinyl)phenyl)ethylidene)hydrazinyl)benzene sulfonamide]
GI50 (HL-60(TB); Homo sapiens): 2.86 µM
CC50 (HL-60(TB); [1]): 60.5 µM
Percent Growth (HL-60(TB); Log10 Concentration -4.0 Molar): -70%
Percent Growth (HL-60(TB); Log10 Concentration -5.0 Molar): 21%
Percent Growth (HL-60(TB); Log10 Concentration -6.0 Molar): 74%
Percent Growth (HL-60(TB); Log10 Concentration -7.0 Molar): 87%
Percent Growth (HL-60(TB); Log10 Concentration -8.0 Molar): 89%
GI50 (NCI-H226; Homo sapiens): 3.31 µM
CC50 (NCI-H226; [1]): 35.1 µM
Percent Growth (NCI-H226; Log10 Concentration -4.0 Molar): -100%
Percent Growth (NCI-H226; Log10 Concentration -5.0 Molar): 10%
Percent Growth (NCI-H226; Log10 Concentration -6.0 Molar): 93%
Percent Growth (NCI-H226; Log10 Concentration -7.0 Molar): 102%
Percent Growth (NCI-H226; Log10 Concentration -8.0 Molar): 96%
GI50 (SF-295; Homo sapiens): 3.67 µM
CC50 (SF-295; [1]): 38.7 µM
Percent Growth (SF-295; Log10 Concentration -4.0 Molar): -95%
Percent Growth (SF-295; Log10 Concentration -5.0 Molar): 15%
Percent Growth (SF-295; Log10 Concentration -6.0 Molar): 96%
Percent Growth (SF-295; Log10 Concentration -7.0 Molar): 96%
Percent Growth (SF-295; Log10 Concentration -8.0 Molar): 83%
GI50 (MALME-3M; Homo sapiens, Malme-3M): 1.98 µM
CC50 (MALME-3M; Homo sapiens, Malme-3M, read-out: LC50 (the source's name)): 7.49 µM
Percent Growth (MALME-3M; Log10 Concentration -4.0 Molar): -100%
Percent Growth (MALME-3M; Log10 Concentration -5.0 Molar): -72%
Percent Growth (MALME-3M; Log10 Concentration -6.0 Molar): 102%
Percent Growth (MALME-3M; Log10 Concentration -7.0 Molar): 97%
Percent Growth (MALME-3M; Log10 Concentration -8.0 Molar): 89%
GI50 (UACC-257; Homo sapiens): 3.97 µM
CC50 (UACC-257; [1]): 75.5 µM
Percent Growth (UACC-257; Log10 Concentration -4.0 Molar): -59%
Percent Growth (UACC-257; Log10 Concentration -5.0 Molar): 17%
Percent Growth (UACC-257; Log10 Concentration -6.0 Molar): 99%
Percent Growth (UACC-257; Log10 Concentration -7.0 Molar): 93%
Percent Growth (UACC-257; Log10 Concentration -8.0 Molar): 89%
GI50 (OVCAR-5; Homo sapiens): 11 µM
CC50 (OVCAR-5; [1]): 54.2 µM
Percent Growth (OVCAR-5; Log10 Concentration -4.0 Molar): -88%
Percent Growth (OVCAR-5; Log10 Concentration -5.0 Molar): 56%
Percent Growth (OVCAR-5; Log10 Concentration -6.0 Molar): 93%
Percent Growth (OVCAR-5; Log10 Concentration -7.0 Molar): 96%
Percent Growth (OVCAR-5; Log10 Concentration -8.0 Molar): 95%
GI50 (NCI/ADR-RES; Homo sapiens): > 100 µM
CC50 (NCI/ADR-RES; [1]): > 100 µM
Percent Growth (NCI/ADR-RES; Log10 Concentration -4.0 Molar): 65%
Percent Growth (NCI/ADR-RES; Log10 Concentration -5.0 Molar): 86%
Percent Growth (NCI/ADR-RES; Log10 Concentration -6.0 Molar): 96%
Percent Growth (NCI/ADR-RES; Log10 Concentration -7.0 Molar): 101%
Percent Growth (NCI/ADR-RES; Log10 Concentration -8.0 Molar): 97%
GI50 (786-0; Homo sapiens): 2.14 µM
CC50 (786-0; [1]): 24.7 µM
Percent Growth (786-0; Log10 Concentration -4.0 Molar): -94%
Percent Growth (786-0; Log10 Concentration -5.0 Molar): -22%
Percent Growth (786-0; Log10 Concentration -6.0 Molar): 85%
Percent Growth (786-0; Log10 Concentration -7.0 Molar): 96%
Percent Growth (786-0; Log10 Concentration -8.0 Molar): 92%
GI50 (UO-31; Homo sapiens): 19.4 µM
CC50 (UO-31; [1]): > 100 µM
Percent Growth (UO-31; Log10 Concentration -4.0 Molar): 2%
Percent Growth (UO-31; Log10 Concentration -5.0 Molar): 69%
Percent Growth (UO-31; Log10 Concentration -6.0 Molar): 81%
Percent Growth (UO-31; Log10 Concentration -7.0 Molar): 89%
Percent Growth (UO-31; Log10 Concentration -8.0 Molar): 84%
GI% (HCT-116): 99.70%
GI% (HT29): 95.46%
GI% (KM12): 96.31%
GI50 (NCI 60 cell panel; Colon cancer subpanel, read-out: MG-MID for GI50): 3.33 µM
GI50 (NCI 60 cell panel; Homo sapiens, 60 cell, Breast cancer subpanel, read-out: MG-MID for GI50): 2.36 µM
GI50 (NCI 60 cell panel; Homo sapiens, 60 cell, CNS cancer subpanel, read-out: MG-MID for GI50): 2.39 µM
GI50 (NCI 60 cell panel; Homo sapiens, 60 cell, Colon cancer subpanel, read-out: MG-MID for GI50): 3.33 µM
GI50 (NCI 60 cell panel; Homo sapiens, 60 cell, Leukemia subpanel, read-out: MG-MID for GI50): 2.42 µM
GI50 (NCI 60 cell panel; Homo sapiens, 60 cell, Melanoma subpanel, read-out: MG-MID for GI50): 2.47 µM
GI50 (NCI 60 cell panel; Homo sapiens, 60 cell, Non-small cell lung cancer subpanel, read-out: MG-MID for GI50): 4.79 µM
GI50 (NCI 60 cell panel; Homo sapiens, 60 cell, Ovarian cancer subpanel, read-out: MG-MID for GI50): 4.19 µM
GI50 (NCI 60 cell panel; Homo sapiens, 60 cell, Prostate cancer subpanel, read-out: MG-MID for GI50): 3.13 µM
GI50 (NCI 60 cell panel; Homo sapiens, 60 cell, Renal cancer subpanel, read-out: MG-MID for GI50): 9.18 µM
GI50 (NCI 60 cell panel; Homo sapiens, 60 cell, against almost the whole panel of cancer cell lines, read-out: GI50 range): 1.1 to 5.9 µM
GI50 (NCI 60 cell panel; Homo sapiens, 60 cell, average over all cell lines, read-out: Full panel MG-MID (GI50)): 3.81 µM
GI50 (NCI 60 cell panel; Homo sapiens, 60 cell, range over the nine subpanels, read-out: subpanel GI50 (MG-MID) range): 2.36 to 9.17 µM
GI50 (NCI 60 cell panel; Melanoma subpanel, read-out: MG-MID for GI50): 2.48 µM
GI50 (NCI 60 cell panel; Prostate cancer subpanel, read-out: MG-MID for GI50): 3.14 µM
Selectivity index (NCI 60 cell panel; full panel MG-MID / Breast cancer subpanel MG-MID): 1.614
Selectivity index (NCI 60 cell panel; full panel MG-MID / CNS cancer subpanel MG-MID): 1.595
Selectivity index (NCI 60 cell panel; full panel MG-MID / Colon cancer subpanel MG-MID): 1.143
Selectivity index (NCI 60 cell panel; full panel MG-MID / Leukemia subpanel MG-MID): 1.574
Selectivity index (NCI 60 cell panel; full panel MG-MID / Melanoma subpanel MG-MID): 1.539
Selectivity index (NCI 60 cell panel; full panel MG-MID / Non-small cell lung cancer subpanel MG-MID): 0.795
Selectivity index (NCI 60 cell panel; full panel MG-MID / Ovarian cancer subpanel MG-MID): 0.909
Selectivity index (NCI 60 cell panel; full panel MG-MID / Prostate cancer subpanel MG-MID): 1.215
Selectivity index (NCI 60 cell panel; full panel MG-MID / Renal cancer subpanel MG-MID): 0.415
